ChEMBL document CHEMBL1949663, “Effective and reversible DNA condensation induced by bifunctional molecules containing macrocyclic polyamines and naphthyl moieties” (Bioorg Med Chem, 2012)
Active and inactive are the calls of the source. The calls are words filed in the database; no cut-off is given here.

Experiments:
[1] = tested on: Nucleic Acid; experiment: Induction of Escherichia coli pUC18 DNA condensation at 120 uM after 5 mins by agarose gel electrophoresis; format: nucleic-acid assay
[2] = tested on: Nucleic Acid; experiment: Induction of Escherichia coli pUC18 DNA condensation assessed as hydrodynamic diameter at 60 uM after 5 mins by dynamic light scattering analysis; format: nucleic-acid assay
[3] = tested on: Nucleic Acid; experiment: Induction of Escherichia coli pUC18 DNA condensation assessed as hydrodynamic diameter at 120 uM after 5 mins by dynamic light scattering analysis; format: nucleic-acid assay
[4] = tested on: Nucleic Acid; experiment: Induction of Escherichia coli pUC18 DNA condensation assessed as diameter of DNA nano particles at 60 uM after 5 mins by atomic force microscopy; format: nucleic-acid assay
[5] = tested on: Nucleic Acid; experiment: Induction of Escherichia coli pUC18 DNA condensation assessed as diameter of DNA nano particles at 120 uM after 5 mins by atomic force microscopy; format: nucleic-acid assay
[6] = tested on: Nucleic Acid; experiment: Binding affinity to calf thymus DNA assessed as fluorescence quenching after 2 mins by ethidium bromide displacement assay; format: nucleic-acid assay; conditions: Bos taurus
[7] = tested on: Nucleic Acid; experiment: Induction of Escherichia coli pUC18 DNA condensation at 80 uM after 5 mins by agarose gel electrophoresis in presence of 10 to 400 mM NaCl; format: nucleic-acid assay
[8] = tested on: Nucleic Acid; experiment: Intercalation at calf thymus DNA assessed as increase in viscosity by viscosity titration assay; format: nucleic-acid assay; conditions: Bos taurus
[9] = tested on: Nucleic Acid; experiment: Reversible condensation of Escherichia coli pUC18 DNA assessed as release of condensed DNA at 120 uM incubated for 5 mins followed by addition of […] NaCl by agarose gel electrophoresis; format: nucleic-acid assay
[10] = tested on: T98G; experiment: Cytotoxicity against human T98G cells at 30 to 120 uM after 24 hrs by MTT assay; format: cell-based
[11] = tested on: HepG2; experiment: Cytotoxicity against human HepG2 cells at 30 to 120 uM after 24 hrs by MTT assay; format: cell-based; conditions: hepg2, 24 h
[12] = Cytotoxicity against human HepG2 cells assessed as cell viability at 120 uM after 24 hrs by MTT assay; format: cell-based; conditions: read-out: Activity
[13] = Cytotoxicity against human T98G cells assessed as cell viability at 120 uM after 24 hrs by MTT assay; format: cell-based; conditions: read-out: Activity
[14] = tested on: Nucleic Acid; experiment: Induction of Escherichia coli pUC18 DNA condensation at above 120 uM after 5 mins by agarose gel electrophoresis; format: nucleic-acid assay
[15] = tested on: Nucleic Acid; experiment: Induction of Escherichia coli pUC18 DNA condensation at 300 uM after 5 mins by agarose gel electrophoresis; format: nucleic-acid assay

Activity [1] | Activity [2] [nm] | Activity [3] [nm] | Activity [4] [nm] | Activity [5] [nm] | Kb [6] [×10⁵ /M] | Activity [7] | Activity [8] | Activity [9] | Activity [15] | SMILES | further results
Active | 105 | 146 | 47 | 55 | 1.2 | inactive | inactive | Active |  | c1ccc2c(CC(CN3CCCNCCCNCCC3)CN3CCCNCCCNCCC3)cccc2c1 | Activity [10]: Toxic; Activity [11]: Toxic
Active | 181 | 222 | 49 | 56 | 0.98 | inactive | inactive | Active |  | c1ccc2c(CC(Cn3cc(CN4CCCNCCCNCCC4)nn3)Cn3cc(CN4CCCNCCCNCCC4)nn3)cccc2c1 | viability at 24 h, 120 µM [12]: 64%; viability at 24 h, 120 µM [13]: 88%
 |  |  |  |  |  |  |  |  | inactive | c1c(CN2CCCNCCCNCCC2)nnn1CCCn1cc(CN2CCCNCCCNCCC2)nn1 | 

Second part, the molecule before the results:

SMILES | Activity [1] | Activity [2] [nm] | Activity [3] [nm] | Activity [4] [nm] | Activity [5] [nm] | Kb [6] [×10⁵ /M] | Activity [7] | Activity [8] | Activity [9] | Activity [15] | further results
c1ccc2c(CCCN3CCCNCCCNCCC3)cccc2c1 |  |  |  |  |  |  |  |  |  |  | Activity [14]: Active
c1ccc2c(CN3CCCNCCCNCCC3)cccc2c1 |  |  |  |  |  |  |  |  |  | inactive | 
C1CNCCCN(CCCN2CCCNCCCNCCC2)CCCNC1 |  |  |  |  |  |  |  |  |  | inactive | 
